According to article PMC7425579 (Journal of medicinal chemistry, 2020):

Key:
HIV-1ATV-5 μM = type: cell-based; conditions: MT-4 cells
HIV-1DRV^RP30 = type: cell-based; conditions: HIV-1DRV^RP30, MT-4 cells
[1] = test system: highly drug-resistant HIV-1 variants; test: Antiviral activity against the panel of highly drug-resistant HIV-1 variants; type: cell-based; conditions: for ability to block replication of highly PI-resistant HIV-1 variants (in words): panel of Table 3
HIV-1LAI = test: Antiviral assay in MT-2 human T-lymphoid cells exposed to HIV-1LAI; type: cell-based; conditions: MT-2 cells
HIV-1 protease = HIV-1 protease (Human immunodeficiency virus type 1 group M subtype B, UniProt P04585); test: HIV-1 protease inhibition assay; type: biochemical; conditions: compared to 5b with the enantiomeric P2 ligand

COC(=O)N[C@H](C(=O)N[C@@H](Cc1ccccc1)[C@@H](O)CN(Cc1ccc(-c2ccccn2)cc1)NC(=O)[C@@H](NC(=O)OC)C(C)(C)C)C(C)(C)C [ATV, atazanavir]
fold-change in IC50 compared to wild-type HIV-1NL4-3 (HIV-1ATV-5 μM): > 250 fold
fold-change in IC50 compared to wild-type HIV-1NL4-3 (HIV-1DRV^RP30): > 250 fold
ability to block replication of highly PI-resistant HIV-1 variants (in words) [1]: unable to suppress the replication

CC(C)CN(C[C@@H](O)[C@H](Cc1ccc(F)cc1)NC(=O)OC1C[C@@H]2CO[C@@H]3OC1C[C@H]23)S(=O)(=O)c1ccc2nc(NC3CC3)sc2c1 (stereo partly drawn) [inhibitor 4f, (1R,3aS,7aR)-Octahydro-1,6-epoxyisobenzofuran-5-yl((2S,3R)-4-((2-(Cyclopropylamino)-N-isobutylbenzo[d]-thiazole)-6-sulfonamido)-1-(4-fluorophenyl)-3-hydroxybutan-2-yl)carbamate]
fold improvement of antiviral activity compared to inhibitor 4b (HIV-1LAI): over 7 fold

CC(C)CN(C[C@@H](O)[C@H](Cc1ccccc1)NC(=O)OC1C[C@@H]2CO[C@@H]3OC1C[C@H]23)S(=O)(=O)c1ccc2nc(NC3CC3)sc2c1 (stereo partly drawn) [inhibitor 4b, (1R,3aS,7aR)-Octahydro-1,6-epoxyisobenzofuran-5-yl((2S,3R)-4-((2-(Cyclopropylamino)-N-isobutylbenzo[d]-thiazole)-6-sulfonamido)-3-hydroxy-1-phenylbutan-2-yl)-carbamate]
fold better enzyme Ki than inhibitor 5b (HIV-1 protease): ~10 fold

CC(C)CN(C[C@@H](O)[C@H](Cc1cc(F)cc(F)c1)NC(=O)OC1C[C@@H]2CO[C@@H]3OC1C[C@H]23)S(=O)(=O)c1ccc2nc(NC3CC3)sc2c1 (stereo partly drawn) [inhibitor 4d, (1R,3aS,7aR)-Octahydro-1,6-epoxyisobenzofuran-5-yl((2S,3R)-4-((2-(Cyclopropylamino)-N-isobutylbenzo[d]-thiazole)-6-sulfonamido)-1-(3,5-difluorophenyl)-3-hydroxybutan-2-yl)carbamate]
IC50 ([1]; Human immunodeficiency virus 1, read-out: antiviral activity against highly drug-resistant HIV-1 variants): 0.21 to 4.5 nM

CC(C)CN(C[C@@H](O)[C@H](Cc1cc(F)cc(F)c1)NC(=O)O[C@H]1C[C@H]2CO[C@H]3OC1C[C@@H]23)S(=O)(=O)c1ccc2nc(NC3CC3)sc2c1 [inhibitor 5d, (1S,3aR,5S,7aS)-Octahydro-1,6-epoxyisobenzofuran-5-yl((2S,3R)-4-((2-(Cyclopropylamino)-N-isobutylbenzo[d]-thiazole)-6-sulfonamido)-1-(3,5-difluorophenyl)-3-hydroxy-butan-2-yl)carbamate]
fold reduction of antiviral activity compared to inhibitor 4d (HIV-1LAI): ~25 fold

CC(C)CN(C[C@@H](O)[C@H](Cc1ccccc1)NC(=O)O[C@H]1C[C@H]2CO[C@H]3OC1C[C@@H]23)S(=O)(=O)c1ccc2nc(NC(C)C)oc2c1 [inhibitor 5c, (1S,3aR,5S,7aS)-Octahydro-1,6-epoxyisobenzofuran-5-yl((2S,3R)-3-Hydroxy-4-((N-isobutyl-2-(isopropylamino)benzo-[d]oxazole)-6-sulfonamido)-1-phenylbutan-2-yl)carbamate]
fold improvement of antiviral activity compared to inhibitor 4c (HIV-1LAI): over 5 fold
ability to block replication of highly PI-resistant HIV-1 variants (in words) [1]: failed to block replication

CC(C)CN(C[C@@H](O)[C@H](Cc1ccc(F)cc1)NC(=O)O[C@H]1C[C@H]2CO[C@H]3OC1C[C@@H]23)S(=O)(=O)c1ccc2nc(NC3CC3)sc2c1 [inhibitor 5f, (1S,3aR,5S,7aS)-Octahydro-1,6-epoxyisobenzofuran-5-yl((2S,3R)-4-((2-(Cyclopropylamino)-N-isobutylbenzo[d]-thiazole)-6-sulfonamido)-1-(4-fluorophenyl)-3-hydroxybutan-2-yl)carbamate]
fold improvement of antiviral activity compared to inhibitor 5b (HIV-1LAI): over 4 fold
